Consider two compounds from ChEMBL document CHEMBL1134019, “Structure determination and comparison of BM567, a sulfonylurea, with terbogrel, two compounds with dual action, thromboxane receptor antagonism and thromboxane synthase inhibition” (Bioorg Med Chem Lett, 2001).

SMILES strings stand for the structures.

The inhibition is the drop in the measured response relative to a control, in per cent. A low value points to a response near the control. The term IC50 denotes the midpoint of a concentration-inhibition curve. A higher IC50 goes with lower potency.

For assay [1], the target named is T1, Thromboxane-A synthase (Homo sapiens) (UniProt P24557).
T1 sequence (whole entry): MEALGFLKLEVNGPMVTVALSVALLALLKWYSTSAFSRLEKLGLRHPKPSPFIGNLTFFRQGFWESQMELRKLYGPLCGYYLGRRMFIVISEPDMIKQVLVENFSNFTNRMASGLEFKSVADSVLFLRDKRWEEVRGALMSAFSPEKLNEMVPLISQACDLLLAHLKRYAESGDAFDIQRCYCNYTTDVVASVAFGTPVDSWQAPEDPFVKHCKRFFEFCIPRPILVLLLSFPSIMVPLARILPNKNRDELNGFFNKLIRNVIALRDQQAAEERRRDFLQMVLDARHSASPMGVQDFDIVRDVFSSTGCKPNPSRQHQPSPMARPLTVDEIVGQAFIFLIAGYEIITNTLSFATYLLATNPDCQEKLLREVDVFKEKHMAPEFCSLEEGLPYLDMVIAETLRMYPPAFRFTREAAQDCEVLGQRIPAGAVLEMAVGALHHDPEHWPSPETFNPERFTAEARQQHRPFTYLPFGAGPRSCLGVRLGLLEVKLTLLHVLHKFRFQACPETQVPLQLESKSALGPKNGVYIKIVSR
The experiment in a line: Percent inhibition against thromboxane A2 synthase by the compound at a concentration of 10e-6 M.

In the next assay the target is T2, Thromboxane A2 receptor (Homo sapiens, UniProt P21731).
T2 sequence (P21731 whole entry): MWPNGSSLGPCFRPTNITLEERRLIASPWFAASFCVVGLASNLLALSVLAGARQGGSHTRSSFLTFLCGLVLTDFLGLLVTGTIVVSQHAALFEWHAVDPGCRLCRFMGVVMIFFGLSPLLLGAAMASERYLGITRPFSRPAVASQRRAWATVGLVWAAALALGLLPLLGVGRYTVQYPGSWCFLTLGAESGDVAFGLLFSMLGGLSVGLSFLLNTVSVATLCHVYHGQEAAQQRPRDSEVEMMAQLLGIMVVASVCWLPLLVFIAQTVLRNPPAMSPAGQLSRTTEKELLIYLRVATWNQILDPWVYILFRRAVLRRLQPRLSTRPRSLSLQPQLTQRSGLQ
The experiment in a line: In vitro inhibitory concentration of compound against thromboxane A2 receptor.

In assay [1], `CCCCCNC(=O)NS(=O)(=O)c1cc([N+](=O)[O-])ccc1NC1CCCCC1` had an inhibition of 97.4%.

Compound `CC(C)(C)/N=C(\NC#N)Nc1cccc(/C(=C/CCCC(=O)O)c2cccnc2)c1` yielded an IC50 on Thromboxane A2 receptor of 11 nM.
